Measurements from PubChem BioAssay AID330 (DTP/NCI, 2004).
Where “and” joins values, the source holds several entries; their conditions need not be identical. Equal values may be shown once. Inconclusive results and toxic doses are left out.

Tested on: P388 leukemia ip, CD2F1 mice, survival T/C
Assay: NCI In Vivo Anticancer Drug Screen. Data for tumor model P388 Leukemia (intraperitoneal) in CD2F1 (CDF1) mice
Conditions: endpoint: median survival time, higher = longer survival
How it was run: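 Mice carrying the transplanted tumor received test compound or vehicle. Survival was recorded in each group, and the value is the treated-group measurement divided by that of the vehicle-treated control group.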

[1] = dose: 60.0 mg/kg/injection, schedule: Q01DX005 (ip), vehicle: Klucel (hydroxypropylcellulose) (HPC)
[2] = dose: 120.0 mg/kg/injection, schedule: Q01DX005 (ip), vehicle: Klucel (hydroxypropylcellulose) (HPC)
[3] = dose: 240.0 mg/kg/injection, schedule: Q01DX005 (ip), vehicle: Klucel (hydroxypropylcellulose) (HPC)
[4] = dose: 200.0 mg/kg/injection, schedule: Q01DX009 (ip), vehicle: saline with Tween-80
[5] = dose: 50.0 mg/kg/injection, schedule: Q01DX005 (ip), vehicle: saline with Tween-80
[6] = dose: 100.0 mg/kg/injection, schedule: Q01DX005 (ip), vehicle: saline with Tween-80
[7] = dose: 200.0 mg/kg/injection, schedule: Q01DX005 (ip), vehicle: saline with Tween-80

Compound: C/C(=N\O)c1ccccn1
- T/C (dose: 25.0 mg/kg/injection, schedule: Q01DX009 (ip), vehicle: water): 100 % of control
- T/C (dose: 50.0 mg/kg/injection, schedule: Q01DX009 (ip), vehicle: water): 98 % of control
- T/C (dose: 100.0 mg/kg/injection, schedule: Q01DX009 (ip), vehicle: water): 98 % of control
- T/C (dose: 200.0 mg/kg/injection, schedule: Q01DX009 (ip), vehicle: water): 100 % of control
- T/C (dose: 400.0 mg/kg/injection, schedule: Q01DX009 (ip), vehicle: water): 106 % of control

Compound: C/C=C(\C(=O)OC)C1CC2OC(=O)C1(C=O)C13CCNC21N(C)c1ccccc13 (stereo not drawn)
- T/C (dose: 4.5 mg/kg/injection, schedule: Q01DX005 (ip), vehicle: saline + Tween-80 + alcohol): 104 % of control
- T/C (dose: 9.5 mg/kg/injection, schedule: Q01DX005 (ip), vehicle: saline + Tween-80 + alcohol): 98 % of control
- T/C (dose: 18.0 mg/kg/injection, schedule: Q01DX005 (ip), vehicle: saline + Tween-80 + alcohol): 104 % of control
- T/C (dose: 38.0 mg/kg/injection, schedule: Q01DX005 (ip), vehicle: saline + Tween-80 + alcohol): 98 % of control

Compound: CCCCCCCCCCCCCCCCCc1ccccc1O
- T/C (dose: 7.5 mg/kg/injection, schedule: Q01DX009 (ip), vehicle: saline with Tween-80): 91 % of control
- T/C (dose: 15.0 mg/kg/injection, schedule: Q01DX009 (ip), vehicle: saline with Tween-80): 94 % of control
- T/C (dose: 30.0 mg/kg/injection, schedule: Q01DX009 (ip), vehicle: saline with Tween-80): 116 % of control

Compound: CC1=C(C(=O)NCc2ccccc2)C(c2cccc([N+](=O)[O-])c2)C(C(=O)NCc2ccccc2)=C(C)N1
- T/C (dose: 15.0 mg/kg/injection, schedule: Q01DX005 (ip), vehicle: saline with Tween-80): 107 % of control
- T/C (dose: 30.0 mg/kg/injection, schedule: Q01DX005 (ip), vehicle: saline with Tween-80): 90 % of control
- T/C (dose: 60.0 mg/kg/injection, schedule: Q01DX005 (ip), vehicle: saline with Tween-80): 87 % of control

Compound: O=C1/C(=C/c2ccccc2)CCCC12C(c1ccccc1)N2Cc1ccccc1 (stereo not drawn)
- T/C [1]: 91 % of control
- T/C [2]: 90 % of control
- T/C [3]: 88 % of control

Compound: COc1ccc(NC(=O)Nc2ccc(Cl)cc2)nn1
- T/C (dose: 50.0 mg/kg/injection, schedule: Q01DX009 (ip), vehicle: Klucel (hydroxypropylcellulose) (HPC)): 103 % of control
- T/C (dose: 100.0 mg/kg/injection, schedule: Q01DX009 (ip), vehicle: Klucel (hydroxypropylcellulose) (HPC)): 101 % of control
- T/C (dose: 200.0 mg/kg/injection, schedule: Q01DX009 (ip), vehicle: Klucel (hydroxypropylcellulose) (HPC)): 94 % of control

Compound: O=C(Cc1cccc2c(=O)cc(-c3ccccc3)oc12)OCCO
- T/C (dose: 25.0 mg/kg/injection, schedule: Q01DX005 (ip), vehicle: Klucel (hydroxypropylcellulose) (HPC)): 100 % of control
- T/C (dose: 50.0 mg/kg/injection, schedule: Q01DX005 (ip), vehicle: Klucel (hydroxypropylcellulose) (HPC)): 103 % of control and 91 % of control
- T/C (dose: 100.0 mg/kg/injection, schedule: Q01DX005 (ip), vehicle: Klucel (hydroxypropylcellulose) (HPC)): 100 % of control and 110 % of control
- T/C (dose: 200.0 mg/kg/injection, schedule: Q01DX005 (ip), vehicle: Klucel (hydroxypropylcellulose) (HPC)): 120 % of control

Compound: O=C1c2c(O)ccc(O)c2C(=O)c2c(NCCN(CCO)Cc3ccccc3)ccc(NCCN(CCO)Cc3ccccc3)c21
- T/C (dose: 0.62 mg/kg/injection, schedule: Q01DX009 (ip), vehicle: saline with Tween-80): 118 % of control
- T/C (dose: 1.25 mg/kg/injection, schedule: Q01DX009 (ip), vehicle: saline with Tween-80): 106 % of control
- T/C (dose: 2.5 mg/kg/injection, schedule: Q01DX009 (ip), vehicle: saline with Tween-80): 97 % of control
- T/C (dose: 5.0 mg/kg/injection, schedule: Q01DX009 (ip), vehicle: saline with Tween-80): 109 % of control
- T/C (dose: 10.0 mg/kg/injection, schedule: Q01DX009 (ip), vehicle: saline with Tween-80): 86 % of control
- T/C (dose: 20.0 mg/kg/injection, schedule: Q01DX009 (ip), vehicle: saline with Tween-80): 103 % of control
- T/C (dose: 40.0 mg/kg/injection, schedule: Q01DX009 (ip), vehicle: distilled water + Tween-80): 101 % of control
- T/C (dose: 40.0 mg/kg/injection, schedule: Q01DX009 (ip), vehicle: saline with Tween-80): 103 % of control
- T/C (dose: 80.0 mg/kg/injection, schedule: Q01DX009 (ip), vehicle: distilled water + Tween-80): 123 % of control
- T/C (dose: 80.0 mg/kg/injection, schedule: Q01DX009 (ip), vehicle: saline with Tween-80): 106 % of control
- T/C (dose: 160.0 mg/kg/injection, schedule: Q01DX009 (ip), vehicle: distilled water + Tween-80): 166 % of control
- T/C (dose: 160.0 mg/kg/injection, schedule: Q01DX009 (ip), vehicle: saline with Tween-80): 163 % of control
- T/C (dose: 320.0 mg/kg/injection, schedule: Q01DX009 (ip), vehicle: distilled water + Tween-80): 194 % of control

Compound: N#CC1OC(COC(=O)c2ccccc2)C(OC(=O)c2ccccc2)C1OC(=O)c1ccccc1 (stereo not drawn)
- T/C (dose: 12.5 mg/kg/injection, schedule: Q01DX009 (ip), vehicle: distilled water + Tween-80): 90 % of control
- T/C (dose: 25.0 mg/kg/injection, schedule: Q01DX009 (ip), vehicle: distilled water + Tween-80): 89 % of control
- T/C (dose: 50.0 mg/kg/injection, schedule: Q01DX009 (ip), vehicle: distilled water + Tween-80): 88 % of control
- T/C (dose: 50.0 mg/kg/injection, schedule: Q01DX009 (ip), vehicle: saline with Tween-80): 99 % of control
- T/C (dose: 100.0 mg/kg/injection, schedule: Q01DX009 (ip), vehicle: distilled water + Tween-80): 98 % of control
- T/C (dose: 100.0 mg/kg/injection, schedule: Q01DX009 (ip), vehicle: saline with Tween-80): 94 % of control
- T/C (dose: 200.0 mg/kg/injection, schedule: Q01DX009 (ip), vehicle: distilled water + Tween-80): 101 % of control
- T/C [4]: 94 % of control

Compound: C=CC(c1ccccc1)c1cc2c(cc1OC)OCO2 (stereo not drawn)
- T/C [5]: 105 % of control
- T/C [6]: 96 % of control
- T/C [7]: 100 % of control

Compound: C/C(=C\CC1C(=O)N(c2ccccc2)N(c2ccccc2)C1=O)CO
- T/C [1]: 100 % of control
- T/C [2]: 100 % of control
- T/C [3]: 91 % of control

Compound: CCN(CC)c1ccc([P+](=O)O)cc1
- T/C (dose: 50.0 mg/kg/injection, schedule: Q01DX009 (ip), vehicle: saline): 108 % of control
- T/C (dose: 100.0 mg/kg/injection, schedule: Q01DX009 (ip), vehicle: saline): 100 % of control

Compound: CC(C)NCC(O)COc1c2ccccc2nc2ccccc12 (stereo not drawn)
- T/C [5]: 101 % of control
- T/C [6]: 95 % of control
- T/C [7]: 102 % of control

Compound: Nc1nc2c(ncn2C2OC(CO)C(O)C2O)c(=O)[nH]1 (stereo not drawn)
- T/C (dose: 25.0 mg/kg/injection, schedule: Q04DX003 (ip), vehicle: saline with Tween-80): 103 % of control and 106 % of control
- T/C (dose: 50.0 mg/kg/injection, schedule: Q04DX003 (ip), vehicle: saline with Tween-80): 120 % of control
- T/C (dose: 100.0 mg/kg/injection, schedule: Q01DX009 (ip), vehicle: suspension in saline): 110 % of control
- T/C (dose: 100.0 mg/kg/injection, schedule: Q04DX003 (ip), vehicle: saline with Tween-80): 90 % of control
- T/C [4]: 111 % of control
- T/C (dose: 200.0 mg/kg/injection, schedule: Q01DX009 (ip), vehicle: suspension in saline): 92 % of control
- T/C (dose: 300.0 mg/kg/injection, schedule: Q01DX009 (ip), vehicle: saline with Tween-80): 106 % of control
- T/C (dose: 400.0 mg/kg/injection, schedule: Q01DX009 (ip), vehicle: saline with Tween-80): 102 % of control
- T/C (dose: 400.0 mg/kg/injection, schedule: Q01DX009 (ip), vehicle: suspension in saline): 119 % of control and 97 % of control
- T/C (dose: 400.0 mg/kg/injection, schedule: Q04DX003 (ip), vehicle: saline with Tween-80): 100 % of control
- T/C (dose: 600.0 mg/kg/injection, schedule: Q01DX009 (ip), vehicle: saline with Tween-80): 90 % of control
- T/C (dose: 800.0 mg/kg/injection, schedule: Q01DX009 (ip), vehicle: saline with Tween-80): 114 % of control
- T/C (dose: 800.0 mg/kg/injection, schedule: Q01DX009 (ip), vehicle: suspension in saline): 113 % of control and 94 % of control
- T/C (dose: 1200.0 mg/kg/injection, schedule: Q01DX009 (ip), vehicle: saline with Tween-80): 95 % of control
- T/C (dose: 1600.0 mg/kg/injection, schedule: Q01DX009 (ip), vehicle: saline with Tween-80): 99 % of control
- T/C (dose: 1600.0 mg/kg/injection, schedule: Q01DX009 (ip), vehicle: suspension in saline): 112 % of control and 95 % of control
- T/C (dose: 2400.0 mg/kg/injection, schedule: Q01DX009 (ip), vehicle: saline with Tween-80): 100 % of control
- T/C (dose: 2400.0 mg/kg/injection, schedule: Q01DX009 (ip), vehicle: suspension in saline): 117 % of control

Compound: CCCCOB(CI)OCCCC
- T/C (dose: 6.25 mg/kg/injection, schedule: Q04DX003 (ip), vehicle: saline): 110 % of control
- T/C (dose: 12.5 mg/kg/injection, schedule: Q04DX003 (ip), vehicle: saline): 100 % of control
- T/C (dose: 25.0 mg/kg/injection, schedule: Q04DX003 (ip), vehicle: saline): 110 % of control
